The values that follow come from ChEMBL document CHEMBL2321717, “Synthesis of novel estrogen receptor antagonists using metal-catalyzed coupling reactions and characterization of their biological activity” (J Med Chem, 2013).

The target in experiment [1] is Estrogen receptor alpha (Homo sapiens) (UniProt P03372). Kind of experiment: Agonist activity at ERalpha receptor in human HeLa cells assessed as activation of ERalpha-based transcription at 100 nM after 20 to 24 hrs by luciferase reporter gene assay. For orientation: In a reporter assay the amount or activity of a reporter protein is the signal.
Another experiment deals with T1, Estrogen receptor (Homo sapiens, UniProt P03372).
T1 sequence (P03372 whole entry): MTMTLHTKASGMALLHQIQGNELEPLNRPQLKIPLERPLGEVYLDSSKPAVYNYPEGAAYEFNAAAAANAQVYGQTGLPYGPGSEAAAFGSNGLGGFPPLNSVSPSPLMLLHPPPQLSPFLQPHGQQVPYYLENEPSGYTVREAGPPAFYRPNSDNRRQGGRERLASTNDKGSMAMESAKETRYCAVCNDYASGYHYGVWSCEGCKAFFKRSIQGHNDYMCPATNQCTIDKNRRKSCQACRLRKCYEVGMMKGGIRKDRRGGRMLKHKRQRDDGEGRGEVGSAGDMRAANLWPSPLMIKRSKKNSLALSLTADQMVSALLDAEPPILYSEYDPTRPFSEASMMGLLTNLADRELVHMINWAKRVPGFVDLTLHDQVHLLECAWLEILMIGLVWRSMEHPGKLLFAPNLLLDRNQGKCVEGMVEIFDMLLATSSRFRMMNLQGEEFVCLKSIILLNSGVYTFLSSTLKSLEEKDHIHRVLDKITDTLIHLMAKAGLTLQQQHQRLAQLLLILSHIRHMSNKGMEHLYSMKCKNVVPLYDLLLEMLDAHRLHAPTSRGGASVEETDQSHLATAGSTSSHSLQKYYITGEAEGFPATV

In experiment [2] the target is Estrogen receptor alpha (Homo sapiens) (UniProt P03372). Kind of experiment: Agonist activity at LBD of ERalpha receptor in human HeLa cells assessed as induction of receptor-SRC-1 interaction at 100 nM after 20 to 24 hrs by luciferase reporter gene assay.
For experiment [3] the target is unchanged. Kind of experiment: Agonist activity at ERalpha receptor in human MCF7 cells assessed as stimulation of cell proliferation after 6 days by crystal violet staining method.
Experiment [4] shares this target. Kind of experiment: Antagonist activity at ERalpha receptor in human HeLa cells assessed as inhibition of E2-induced response after 20 to 24 hrs by luciferase reporter gene assay.
The target is the same in experiment [5]. The experiment is described as follows: Agonist activity at ERalpha receptor in human HepG2 cells assessed as activation of ERalpha-based transcription at 100 nM after 20 to 24 hrs by luciferase reporter gene assay.
The target in a further experiment is Estrogen receptor beta (Homo sapiens, UniProt Q92731).
Experiment [6] relates to MDA-MB-231. The experiment is described as follows: Stimulation of cell proliferation in human ERalpha receptor negative MDA-MB-231 cells after 6 days by crystal violet staining method. It counts as functional, cell-based.
In experiment [7] the test system is MDA-MB-231. Kind of experiment: Inhibition of cell proliferation in human ERalpha receptor negative MDA-MB-231 cells after 6 days by crystal violet staining method. It counts as functional, cell-based.
The target of experiment [8] is Estrogen receptor alpha (Homo sapiens) (UniProt P03372). The experiment is described as follows: Partial agonist activity at ERalpha receptor in human HeLa cells assessed as activation of ERalpha-based transcription at 100 nM after 20 to 24 hrs by luciferase reporter gene assay.

Activity calls are given as the source filed them. No cut-off for these calls is given here.

Estrogen receptor beta, sequence (Q92731 whole entry): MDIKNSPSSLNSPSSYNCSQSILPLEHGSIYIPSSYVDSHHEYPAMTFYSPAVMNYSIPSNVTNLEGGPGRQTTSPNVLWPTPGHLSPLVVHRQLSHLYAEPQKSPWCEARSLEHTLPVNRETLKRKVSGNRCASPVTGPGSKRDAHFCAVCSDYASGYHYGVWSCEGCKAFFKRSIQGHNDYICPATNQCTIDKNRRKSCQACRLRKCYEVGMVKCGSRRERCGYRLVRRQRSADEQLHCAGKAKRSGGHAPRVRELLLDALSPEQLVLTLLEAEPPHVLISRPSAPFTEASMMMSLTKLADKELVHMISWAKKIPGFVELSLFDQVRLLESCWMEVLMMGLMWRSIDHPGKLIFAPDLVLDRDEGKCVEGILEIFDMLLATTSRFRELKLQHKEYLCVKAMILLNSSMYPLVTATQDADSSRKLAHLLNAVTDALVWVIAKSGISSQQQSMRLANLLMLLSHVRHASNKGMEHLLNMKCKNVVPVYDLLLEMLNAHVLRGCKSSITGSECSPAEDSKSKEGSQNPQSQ

Usually IC50 stands for the midpoint of a concentration-inhibition curve. High values mean weaker potency in that assay, low ones greater potency in that assay. Turning to `C[C@]12CC[C@@H]3c4ccc(O)cc4C[C@@H](CCCCC#Cc4ccc5ccccc5c4)[C@H]3[C@@H]1CC[C@@H]2O`, the result in experiment [1], in [2] and in experiment [3] was Active. Further, the IC50 against Estrogen receptor came to 176 nM.

With `C[C@]12CC[C@@H]3c4ccc(O)cc4C[C@@H](CCCCc4cn(CC5COc6ccccc6O5)nn4)[C@H]3[C@@H]1CC[C@@H]2O` (some centres not stated), the outcome in experiment [4] was Active. Moreover, the Activity in experiment [5] turned out to be 50%. The IC50 against Estrogen receptor beta came to 41.2 nM; on Estrogen receptor it was 24.4 nM.

As to `C[C@]12CC[C@@H]3c4ccc(O)cc4C[C@@H](CCCCC#Cc4ccc(-c5ccno5)cc4)[C@H]3[C@@H]1CC[C@@H]2O`, the result with MDA-MB-231 [6] and in the experiment on MDA-MB-231 [7] was inactive. Besides, the Activity in experiment [5] turned out to be 50%. Moreover, the outcome in [1] and in experiment [8] was Active.

In the case of `CCOC(=O)CC(=O)c1ccc(C#CCCCC[C@@H]2Cc3cc(O)ccc3[C@H]3CC[C@]4(C)[C@@H](O)CC[C@H]4[C@H]23)cc1`, the IC50 was determined as 185 nM against Estrogen receptor beta and 96.5 nM against Estrogen receptor. For the same compound, the outcome in [1], in [2] and in experiment [3] was Active.

As for `C[C@]12CC[C@@H]3c4ccc(O)cc4C[C@@H](CCCCC#Cc4ccc(CN5CCCCC5)cc4)[C@H]3[C@@H]1CC[C@@H]2O`, the result in [1], in [2] and in experiment [3] was Active. Moreover, the IC50 on Estrogen receptor worked out at 638 nM.

As for `C[C@]12CC[C@@H]3c4ccc(O)cc4C[C@@H](CCCCC#Cc4ccc(-n5cccc5)cc4)[C@H]3[C@@H]1CC[C@@H]2O`, the outcome in experiment [1], in experiment [2] and in experiment [3] was Active. In addition, on Estrogen receptor, the IC50 was found to be 28.3 nM.

For `CC(C)(C)OC(=O)N1CCN(c2ccc(C#CCCCC[C@@H]3Cc4cc(O)ccc4[C@H]4CC[C@]5(C)[C@@H](O)CC[C@H]5[C@H]34)cc2)CC1`, the outcome in the experiment with MDA-MB-231 [6] and in the experiment with MDA-MB-231 [7] was inactive. Also, the IC50 was 436 nM at Estrogen receptor beta and 567 nM on Estrogen receptor. In addition, the outcome in experiment [1] and in experiment [8] was Active.

For `CCOC(=O)C(Cc1ccc(C#CCCCC[C@@H]2Cc3cc(O)ccc3[C@H]3CC[C@]4(C)[C@@H](O)CC[C@H]4[C@H]23)cc1)C(=O)OCC`, the IC50 was 151 nM against Estrogen receptor beta and 126 nM against Estrogen receptor. For the same compound, the result in experiment [1], in [2] and in experiment [3] was Active.
